pIC50: −log10 of the molar value. Like-named read-outs stand apart in the source and are kept apart here.
Columns and labels:
[1] = system: KB cells; assay: In vitro suppression of proliferation of KB cancer cells by concomitant use with doxorubicin; assay type: cell-based, Human; conditions: test compound 1 μg/ml with ADM, ADM alone in KB = 1
Procedure: (§1) In vitro test of action suppressing proliferation of cancer cells by concomitant use with doxorubicin
(§2) As the incubation solutions, use was made of 10% fetal calf serum (made by Flow Laboratories) and Eagle MEM medium (made by Nissui Seiyakusha) containing 0.292 mg/ml of L-glutamine (made by Flow Laboratories). The tests of the action in overcoming resistance to anti-cancer drugs or action reinforcing the effect of the anti-cancer drug through concomitant use of the anti-cancer drug doxorubicin (adriamycin, ADM) and the test compound were performed as follows: The test cells were suspended in incubation solutions and adjusted to a cell density of about 200 cells/ml. The cell suspensions were injected in 2 ml amounts into petri dishes and were incubated in a CO2 gas incubator (5% CO2, 95% air) at 37° C. for 24 hours. Next, 5 to 10 μl of a predetermined concentration of the aqueous ADM solution and a predetermined concentration of a DMSO solution of the test compound were added, then the incubation was continued for a further 7 days. After the end of the incubation, the result was immobilized by methanol, Giemsa stained and measured for the number of colonies per dish. The results were used to prepare a volume-reaction curve.

[2] = system: VJ-300 cells; assay: In vitro suppression of proliferation of multi-drug resistant VJ-300 cells by concomitant use with doxorubicin; assay type: cell-based, Human; conditions: test compound 1 μg/ml with ADM, ADM alone in KB = 1
Procedure: as §1, §2

[3] = system: VCR resistant murine leukemia (P388/VCR) cells; assay: In vivo effect for overcoming resistance to vincristine in VCR resistant murine leukemia (P388/VCR) bearing mice; set-up: species or system CDF1 male mice
Text: In vivo test of action suppressing proliferation of cancer cells by concomitant use with anti-cancer drug
The number of survival days were found and the life prolonging rate (T/C) with respect to the controls was found. The effect in overcoming resistance to an anti-cancer drug (T/V) was found by the following formula.
Effect for overcoming resistance to an anti-cancer drug (T/V) %
=[Life prolonging rate (T/C) in case of concomitant use of VCR and the compound of the present invention]/[Life prolonging rate (T/C) in case of VCR alone]×100
Using Compound 18 to Compound 22 and Compound 32, the same procedure was followed as in Test Example 5 to find the effect for overcoming resistance to an anti-cancer drug in vincristine (VCR) resistant murine leukemia cell bearing mice.

[4] = Acute toxicity test; conditions: mouse, in vivo, ip; mice, intraperitoneal, 7 days observation
Procedure: Animals used: ICR male mice (Charles River Japan) 7-8 weeks old, three mice per group.
Test method: The compound of the present invention was suspended in 0.5% sodium carboxymethylcellulose (CMC-Na) containing 0.1% Tween 80. It was administered to the mice intraperitoneally from 2000 mg/kg to 125 mg/kg by a ratio of 1/2 and from 125 mg/kg to 31.3 mg/kg by a ratio of 1/√2 in groups of three mice until no more deaths were observed. The survival of the animals was observed up until 7 days after administration and the LD50 was calculated by the Van Der Wearder area method.

[5] = system: KCl contraction in rat arteries (thoracic aorta); assay: Action easing KCl contraction in rat arteries (thoracic aorta ring); conditions: read-out: IC50 value (50% inhibitory concentration of hypercalcemic contraction), Test Example 8, Table 8
[6] = system: TxA2 synthesis; assay: TxA2 synthesis inhibiting action test (human blood platelet microsomes); assay type: biochemical; conditions: prostaglandin H2
Procedure: TxA2 Synthesis Inhibiting Action Test
One ml of a buffer (20 mM Tris-HCl buffer, 1 mM EDTA, pH 7.5) containing human blood platelet microsomes (50 μg protein/ml) and the test compound (final concentration 10^-7 M) was agitated, then incubated at 0° C. for 30 minutes. To this was added prostaglandin H2 (100 ng/2 μl). This was incubated at 23° C. for 3 minutes to cause a reaction. Next, 1M hydrochloric acid was added to make the solution acidic and stop the reaction, then this was neutralized by 1M Tris-Base and centrifuged at 3000 rpm for 20 minutes. The amount of the TxB2 in the supernatant was measured by the EIA method (Cayman Co. kit).

[7] = system: KCl contraction in rat arteries (thoracic aorta); assay: Action easing KCl contraction in rat arteries (thoracic aorta ring); conditions: read-out: IC50 value (50% inhibitory concentration of hyperpotassium contraction), Test Example 7, Table 7, 37° C.
Procedure: Action easing KCl contraction in rat arteries
The specimen was stabilized for approximately 60 minutes, then a potassium chloride solution was added to the Magnus tube to give a final concentration of […]. The positive control compound or the compound of the present invention was cumulatively added from 1×10^-10 M to 1×10^-4 M when the contraction reaction occurring at that time reached equilibrium. The contraction force was recorded by an FD-pickup (made by Nihon Kodensha) via a polygraph (made by Nihon Kodensha).

[8] = system: KB cells; assay: In vitro suppression of proliferation of KB cancer cells by concomitant use with vincristine; assay type: cell-based, Human; conditions: test compound 1 μg/ml with VCR, VCR alone in KB = 1
Procedure: as §2
In vitro test of action suppressing proliferation of cancer cells by concomitant use with vincristine […]

[9] = system: VJ-300 cells; assay: In vitro suppression of proliferation of multi-drug resistant VJ-300 cells by concomitant use with vincristine; assay type: cell-based, Human; conditions: test compound 1 μg/ml with VCR, VCR alone in KB = 1
[10] = system: multi-drug resistance; conditions: Cancer Res., 41, 1967-1972 (1981); Cancer and Chemotherapy, vol. 11, pp. 750-759 (1984); cited from earlier work
[11] = Test Example 6, Table 6, same procedure as Test Example 5
[12] = Test Example 5, Table 5, T/C with VCR + compound over T/C with VCR alone ×100
[13] = Test Example 5, Table 5, VCR 100 μg/kg i.p. 5 days with compound 100 mg/kg (verapamil 60, nicardipine 75 mg/kg)

| Structure (SMILES) | LD50 at 168 h [4] [mg/kg] | pIC50 [5] | TxA2 synthesis inhibiting action Rate of suppression at 10^-7 mol (%) [6] [%] | Effect for overcoming resistance T/V (%) [3, 12] [%] | Life prolonging rate T/C (%) [3, 13] [%] | Mean days of survival [3, 13] [days] | other results |
| --- | --- | --- | --- | --- | --- | --- | --- |
| COc1cccc2c1C(=O)c1c(O)c3c(c(O)c1C2=O)C[C@@](O)(C(=O)CO)C[C@@H]3O[C@H]1C[C@H](N)[C@H](O)[C@H](C)O1 [ADM, doxorubicin] | – | – | – | – | – | – | Resistance with ADM, KB (LD50 concentration of ADM relative to ADM alone in KB cells) [1]: 1; Resistance with ADM, VJ-300 (LD50 concentration of ADM relative to ADM alone in KB cells) [2]: 26.4 |
| CCCCCC1C(C(=O)OCCCc2cccnc2)=C(C)NC(C)=C1C(=O)OCCCc1cccnc1 [Compound 18, 2,6-dimethyl-4-n-pentyl-1,4-dihydropyridine-3,5-dicarboxylic acid bis[3-(3-pyridyl)propyl]ester] | > 2000 | 5.34 | – | – | – | – | Effect for overcoming resistance T/V (%) [3, 11]: 140%; Life prolonging rate T/C (%) [3, 11]: 143%; Mean days of survival [3, 11]: 15.3 days |
| CC1=C(C(=O)OCCCc2cccnc2)C(C(C)C)C(C(=O)OCCCc2cccnc2)=C(C)N1 [Compound 1, 2,6-dimethyl-4-isopropyl-1,4-dihydropyridine-3,5-dicarboxylic acid bis[3-(3-pyridyl)propyl]ester] | 750 | – | 90.7 | – | – | – | pIC50 [7]: < 4.52 |
| CC[C@]1(O)C[C@H]2CN(CCc3c([nH]c4ccccc34)[C@@](C(=O)OC)(c3cc4c(cc3OC)N(C=O)[C@H]3[C@@](O)(C(=O)OC)[C@H](OC(C)=O)[C@]5(CC)C=CCN6CC[C@]43[C@@H]65)C2)C1 [VCR, vincristine, reference compound] | – | – | – | 100 | 107 | 10.7 | Resistance with VCR, KB (LD50 concentration of VCR relative to VCR alone in KB cells) [8]: 1; Resistance with VCR, VJ-300 (LD50 concentration of VCR relative to VCR alone in KB cells) [9]: 603.4; Effect for overcoming resistance T/V (%) [3, 11]: 100%; Life prolonging rate T/C (%) [3, 11]: 102%; Mean days of survival [3, 11]: 10.9 days |
| CC1=C(C(=O)OCCCc2cccnc2)C(Cc2ccccc2)C(C(=O)OCCCc2cccnc2)=C(C)N1 [Compound 5, 2,6-dimethyl-4-benzyl-1,4-dihydropyridine-3,5-dicarboxylic acid bis[3-(3-pyridyl)propyl]ester] | 1120 | 4.38 | – | – | – | – | – |
| CCCCCCCCC1C(C(=O)OCCCc2cccnc2)=C(C)NC(C)=C1C(=O)OCCCc1cccnc1 [Compound 16, 2,6-dimethyl-4-n-octyl-1,4-dihydropyridine-3,5-dicarboxylic acid bis[3-(3-pyridyl)propyl]ester] | > 2000 | 4.21 | – | – | – | – | – |
| CC1=C(C(=O)OCCCc2cccnc2)C(C(C)C)C(C(=O)OCc2ccncc2)=C(C)N1 (stereo not drawn) [Compound 15, 2,6-dimethyl-4-isopropyl-1,4-dihydropyridine-3,5-dicarboxylic acid 3-(4-pyridylmethyl) ester, 5-[3-(3-pyridyl)propyl]ester] | – | 5.38 | 83.5 | 134 | 144 | 14.4 | – |
| COC(=O)C1=C(C)NC(C)=C(C(=O)OCCN(C)Cc2ccccc2)C1c1cccc([N+](=O)[O-])c1 (stereo not drawn) [Nicardipine, nicardipine, reference compound] | – | 6.82 | – | 123 | 132 | 13.2 | pIC50 [7]: 6.28; overcoming multi-drug resistance by concomitant administration with an anti-cancer drug [10]: effective |
| COC(=O)C1=C(C)NC(C)=C(C(=O)OCCCc2cccnc2)C1C(C)C (stereo not drawn) [Compound 13, 2,6-dimethyl-4-isopropyl-1,4-dihydropyridine-3,5-dicarboxylic acid 3-methylester 5-[3-(3-pyridyl)propyl]ester] | – | 5.24 | 71.4 | – | – | – | – |
| CCCC(C)C1C(C(=O)OCCCc2cccnc2)=C(C)NC(C)=C1C(=O)OCCCc1cccnc1 (stereo not drawn) [Compound 3, 2,6-dimethyl-4-(1-methylbutyl)-1,4-dihydropyridine-3,5-dicarboxylic acid bis[3-(3-pyridyl)propyl]ester] | 188 | – | 82.4 | 161 | 172 | 17.2 | – |
| CC1=C(C(=O)OCCCc2cccnc2)C(C(c2ccccc2)c2ccccc2)C(C(=O)OCCCc2cccnc2)=C(C)N1 [Compound 6, 2,6-dimethyl-4-benzhydryl-1,4-dihydropyridine-3,5-dicarboxylic acid bis[3-(3-pyridyl)propyl]ester] | 2000 | – | – | – | – | – | pIC50 [7]: 4.59 |

From US5843950A, “1,4-dihydropyridine compound and pharmaceutical composition containing the same” (Nikken Chemicals Co., Ltd., priority 1994, dated 1998)
